What was measured:
ABUTH (Velvetleaf) [1] = experiment: Postemergence herbicidal evaluation; type: in vivo, Abutilon theophrasti
Method in brief: (§1)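 Rate range approx. 0.0156–0.500 kg/ha. Foliar application at 40 psi to ~2-week seedlings; surfactant 0.5% TWEEN 20 in 50/50 acetone/water. Evaluation 4–5 wk post-treatment by 0–9 visual injury score, means of replicate tests.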

[2] = tested on: CHEAL (Lambsquarters, Common); experiment: Postemergence herbicidal evaluation; type: in vivo, Chenopodium album
Method in brief: as §1

[3] = tested on: IPOHE (Morningglory, Ivyleaf); experiment: Postemergence herbicidal evaluation; type: in vivo, Ipomoea hederacea
Method in brief: as §1

ECHCG (Barnyardgrass) [4] = experiment: Postemergence herbicidal evaluation; type: in vivo, Echinochloa crus-galli
Method in brief: as §1

SETVI (Foxtail, Green) = experiment: Postemergence herbicidal evaluation; type: in vivo, Setaria viridis
Method in brief: as §1

ORYSAT (Rice, Tebonnet) = experiment: Postemergence herbicidal evaluation; type: in vivo, Oryza sativa, (L.) Tebonnet
Method in brief: as §1

ZEAMX (Corn, Field) [5] = experiment: Postemergence herbicidal evaluation; type: in vivo, Zea mays
Method in brief: as §1

ABUTH (Velvetleaf) [6] = experiment: Preemergence herbicidal evaluation; type: in vivo, Abutilon theophrasti; conditions: rated 4-5 weeks after treatment
Method in brief: (§2)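 Rating at 4–5 wk post-spray on a 0–9 visual scale vs control. Application: aqueous acetone, ~0.0156–0.500 kg/ha, to soil surface after seeding, preemergence.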

CASOB (Sicklepod) = experiment: Preemergence herbicidal evaluation; type: in vivo, Cassia obtusifolia; conditions: rated 4-5 weeks after treatment
Method in brief: as §2

[7] = tested on: CHEAL (Lambsquarters, Common); experiment: Preemergence herbicidal evaluation; type: in vivo, Chenopodium album; conditions: rated 4-5 weeks after treatment
Method in brief: as §2

[8] = tested on: IPOHE (Morningglory, Ivyleaf); experiment: Preemergence herbicidal evaluation; type: in vivo, Ipomoea hederacea; conditions: rated 4-5 weeks after treatment
Method in brief: as §2

ECHCG (Barnyardgrass) [9] = experiment: Preemergence herbicidal evaluation; type: in vivo, Echinochloa crus-galli; conditions: rated 4-5 weeks after treatment
Method in brief: as §2

[10] = tested on: GLXMAW (Soybean, Williams); experiment: Preemergence herbicidal evaluation; type: in vivo, Glycine max, (L.) Merr. cv Williams; conditions: rated 4-5 weeks after treatment
Method in brief: as §2

[11] = tested on: TRZAWR (Wheat, Winter, cv Riband); experiment: Preemergence herbicidal evaluation; type: in vivo, Triticum aestivum; conditions: rated 4-5 weeks after treatment
Method in brief: as §2

ZEAMX (Corn, Field) [12] = experiment: Preemergence herbicidal evaluation; type: in vivo, Zea mays; conditions: rated 4-5 weeks after treatment
Method in brief: as §2

CYPIR (Rice Flatsedge) = experiment: Postemergence weed control under flooded paddy conditions; type: in vivo, Cyperus iria; conditions: postemergence weeds, rated 3 to 4 weeks after treatment
Method in brief: (§3)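 Weeds 3 to 5 cm tall and rice seedlings at the 1.5 to 2.5 leaf stage were flooded, with water held 1.5 to 3 cm above the soil. Compounds in 50/50 v/v aqueous/acetone went into the flood water at about 0.0313 to 0.500 kg/ha. Visual 0-9 ratings versus control were made 3 to 4 weeks later.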

CYPSE (Flatsedge) = experiment: as above; type: in vivo, Cyperus serotinus; conditions: postemergence weeds, rated 3 to 4 weeks after treatment
Method in brief: as §3

With C=CCN1C(=O)C(CC(=O)O)SC1=Nc1cc(-n2c(=O)cc(C(F)(F)F)n(C)c2=O)c(F)cc1Cl (centres unmarked) [Compound 62, 3-Allyl-2-{{2-chloro-5-[3,6-dihydro-3-methyl-2,6-dioxo-4-(trifluoromethyl)-1(2H)-pyrimidinyl]-4-fluorophenyl}imino}-4-oxo-5-thiazolidineacetic acid] the “Postemergence herbicidal rating ABUTH” value (ABUTH (Velvetleaf) [1]; Rate 0.0158 kg/ha) was 9.0, the “Postemergence herbicidal rating ABUTH” value (ABUTH (Velvetleaf) [1]; Rate 0.0315 kg/ha) was 9.0 and the “Postemergence herbicidal rating ABUTH” value (ABUTH (Velvetleaf) [1]; Rate 0.0630 kg/ha) was 9.0. The “Postemergence herbicidal rating CHEAL” value ([2]; Rate 0.0158 kg/ha) was 9.0, the “Postemergence herbicidal rating CHEAL” value ([2]; Rate 0.0315 kg/ha) was 9.0 and the “Postemergence herbicidal rating CHEAL” value ([2]; Rate 0.0630 kg/ha) was 9.0. For the same molecule, the “Postemergence herbicidal rating IPOHE” value ([3]; Rate 0.0158 kg/ha) was 9.0, the “Postemergence herbicidal rating IPOHE” value ([3]; Rate 0.0315 kg/ha) was 9.0 and the “Postemergence herbicidal rating IPOHE” value ([3]; Rate 0.0630 kg/ha) was 9.0. The “Postemergence herbicidal rating ECHCG” value (ECHCG (Barnyardgrass) [4]; Rate 0.0158 kg/ha) was 4.0, the “Postemergence herbicidal rating ECHCG” value (ECHCG (Barnyardgrass) [4]; Rate 0.0315 kg/ha) was 6.0 and the “Postemergence herbicidal rating ECHCG” value (ECHCG (Barnyardgrass) [4]; Rate 0.0630 kg/ha) was 7.0. For the same molecule, the “Postemergence herbicidal rating SETVI” value (SETVI (Foxtail, Green); Rate 0.0158 kg/ha) was 9.0, the “Postemergence herbicidal rating SETVI” value (SETVI (Foxtail, Green); Rate 0.0315 kg/ha) was 9.0 and the “Postemergence herbicidal rating SETVI” value (SETVI (Foxtail, Green); Rate 0.0630 kg/ha) was 8.0. For the same molecule, the “Postemergence herbicidal rating ORYSAT” value (ORYSAT (Rice, Tebonnet); Rate 0.0158 kg/ha) was 4.5, the “Postemergence herbicidal rating ORYSAT” value (ORYSAT (Rice, Tebonnet); Rate 0.0315 kg/ha) was 5.0 and the “Postemergence herbicidal rating ORYSAT” value (ORYSAT (Rice, Tebonnet); Rate 0.0630 kg/ha) was 7.0. For the same molecule, the “Postemergence herbicidal rating ZEAMX” value (ZEAMX (Corn, Field) [5]; Rate 0.0158 kg/ha) was 7.5, the “Postemergence herbicidal rating ZEAMX” value (ZEAMX (Corn, Field) [5]; Rate 0.0315 kg/ha) was 8.0 and the “Postemergence herbicidal rating ZEAMX” value (ZEAMX (Corn, Field) [5]; Rate 0.0630 kg/ha) was 8.0. For the same molecule, the “Preemergence herbicidal rating ABUTH” value (ABUTH (Velvetleaf) [6]; rate 0.0156 kg/ha) was 4.0, the “Preemergence herbicidal rating ABUTH” value (ABUTH (Velvetleaf) [6]; rate 0.0313 kg/ha) was 7.0 and the “Preemergence herbicidal rating ABUTH” value (ABUTH (Velvetleaf) [6]; rate 0.0625 kg/ha) was 9.0. The “Preemergence herbicidal rating ABUTH” value (ABUTH (Velvetleaf) [6]; rate 0.1250 kg/ha) was 9.0, the “Preemergence herbicidal rating ABUTH” value (ABUTH (Velvetleaf) [6]; rate 0.2500 kg/ha) was 9.0 and the “Preemergence herbicidal rating CASOB” value (CASOB (Sicklepod); rate 0.0156 kg/ha) was 0.0. The “Preemergence herbicidal rating CASOB” value (CASOB (Sicklepod); rate 0.0313 kg/ha) was 0.0, the “Preemergence herbicidal rating CASOB” value (CASOB (Sicklepod); rate 0.0625 kg/ha) was 1.0 and the “Preemergence herbicidal rating CASOB” value (CASOB (Sicklepod); rate 0.1250 kg/ha) was 1.0. The “Preemergence herbicidal rating CASOB” value (CASOB (Sicklepod); rate 0.2500 kg/ha) was 1.0, the “Preemergence herbicidal rating CHEAL” value ([7]; rate 0.0156 kg/ha) was 7.0 and the “Preemergence herbicidal rating CHEAL” value ([7]; rate 0.0313 kg/ha) was 9.0. For the same molecule, the “Preemergence herbicidal rating CHEAL” value ([7]; rate 0.0625 kg/ha) was 9.0, the “Preemergence herbicidal rating CHEAL” value ([7]; rate 0.1250 kg/ha) was 9.0 and the “Preemergence herbicidal rating CHEAL” value ([7]; rate 0.2500 kg/ha) was 9.0. The “Preemergence herbicidal rating IPOHE” value ([8]; rate 0.0156 kg/ha) was 0.0, the “Preemergence herbicidal rating IPOHE” value ([8]; rate 0.0313 kg/ha) was 3.0 and the “Preemergence herbicidal rating IPOHE” value ([8]; rate 0.0625 kg/ha) was 5.0. The “Preemergence herbicidal rating IPOHE” value ([8]; rate 0.1250 kg/ha) was 7.0, the “Preemergence herbicidal rating IPOHE” value ([8]; rate 0.2500 kg/ha) was 9.0 and the “Preemergence herbicidal rating ECHCG” value (ECHCG (Barnyardgrass) [9]; rate 0.0156 kg/ha) was 0.0. The “Preemergence herbicidal rating ECHCG” value (ECHCG (Barnyardgrass) [9]; rate 0.0313 kg/ha) was 0.0, the “Preemergence herbicidal rating ECHCG” value (ECHCG (Barnyardgrass) [9]; rate 0.0625 kg/ha) was 1.0 and the “Preemergence herbicidal rating ECHCG” value (ECHCG (Barnyardgrass) [9]; rate 0.1250 kg/ha) was 3.0. The “Preemergence herbicidal rating ECHCG” value (ECHCG (Barnyardgrass) [9]; rate 0.2500 kg/ha) was 7.0, the “Preemergence herbicidal rating GLXMAW” value ([10]; rate 0.0156 kg/ha) was 0.0 and the “Preemergence herbicidal rating GLXMAW” value ([10]; rate 0.0313 kg/ha) was 0.0. For the same molecule, the “Preemergence herbicidal rating GLXMAW” value ([10]; rate 0.0625 kg/ha) was 1.0, the “Preemergence herbicidal rating GLXMAW” value ([10]; rate 0.1250 kg/ha) was 2.0 and the “Preemergence herbicidal rating GLXMAW” value ([10]; rate 0.2500 kg/ha) was 7.0. For the same molecule, the “Preemergence herbicidal rating TRZAWR” value ([11]; rate 0.0156 kg/ha) was 0.0, the “Preemergence herbicidal rating TRZAWR” value ([11]; rate 0.0625 kg/ha) was 1.0 and the “Preemergence herbicidal rating TRZAWR” value ([11]; rate 0.1250 kg/ha) was 1.0. The “Preemergence herbicidal rating TRZAWR” value ([11]; rate 0.2500 kg/ha) was 2.0, the “Preemergence herbicidal rating ZEAMX” value (ZEAMX (Corn, Field) [12]; rate 0.0156 kg/ha) was 0.0 and the “Preemergence herbicidal rating ZEAMX” value (ZEAMX (Corn, Field) [12]; rate 0.0313 kg/ha) was 1.0. For the same molecule, the “Preemergence herbicidal rating ZEAMX” value (ZEAMX (Corn, Field) [12]; rate 0.0625 kg/ha) was 1.0, the “Preemergence herbicidal rating ZEAMX” value (ZEAMX (Corn, Field) [12]; rate 0.1250 kg/ha) was 3.0 and the “Preemergence herbicidal rating ZEAMX” value (ZEAMX (Corn, Field) [12]; rate 0.2500 kg/ha) was 7.0. For the same molecule, the “Herbicidal rating CYPIR” value (CYPIR (Rice Flatsedge); Rate 0.0313 kg/ha) was 0.0, the “Herbicidal rating CYPIR” value (CYPIR (Rice Flatsedge); Rate 0.0625 kg/ha) was 2.0 and the “Herbicidal rating CYPIR” value (CYPIR (Rice Flatsedge); Rate 0.1250 kg/ha) was 9.0. For the same molecule, the “Herbicidal rating CYPIR” value (CYPIR (Rice Flatsedge); Rate 0.2500 kg/ha) was 9.0, the “Herbicidal rating CYPSE” value (CYPSE (Flatsedge); Rate 0.0313 kg/ha) was 0.0 and the “Herbicidal rating CYPSE” value (CYPSE (Flatsedge); Rate 0.0625 kg/ha) was 0.0. For the same molecule, the “Herbicidal rating CYPSE” value (CYPSE (Flatsedge); Rate 0.1250 kg/ha) was 0.0 and the “Herbicidal rating CYPSE” value (CYPSE (Flatsedge); Rate 0.2500 kg/ha) was 0.0.

Source: US20020137929A1, “1 - (3-heterocyclylphenyl) isothiourea, -isourea, -guanidine and -amidine herbicidal agents” (Intellectual Property Department, BASF Aktiengesellschaft, priority 1998, published 2002)
